Test system: AKT and STAT3 phosphorylation in sphere cultured SKOV3ip1 cells
Assay: immunostaining of AKT and STAT3 phosphorylation, sphere culture
Assay type: cell-based
Text: In order to identify whether a change in signaling pathways associated with cell survival appears or not according to 2D monolayer culture (2D MC) and 3D sphere culture (3D SC), immunostaining was implemented. More particularly, after culturing SKOV3ip1 cells (1×10^6) by 2D monolayer culture or 3D sphere culture described in section 1.1, expression of cell-signaling molecules including AKT, STAT3, p42/44 ERK and p38 MAPK was detected and activation states in the monolayer cultured cells and the sphere cultured cells were compared. The monolayer cultured or sphere cultured SKOV3ip1 cells were harvested and washed once with ice-cold 1× phosphate buffered saline, followed by dissolving the same in 100 μl ice-cold RIPA buffer (20 mM Tris-Cl, pH 8.0, 125 mM NaCl, […], 1 mM ethylene diamine tetraacetic acid, 1% Triton X-100, 0.5% sodium deoxycholate, 0.1% sodium dodecyl sulfate, 1× complete protease inhibitor cocktail (Roche, Mannheim, Germany)) on ice. After assessing the protein concentration using a Bradford Protein assay kit (Biorad, CA, USA), the same amount of proteins (30 μg) was separated by SDS-PAGE and moved to a nitrocellulose membrane, followed by immunostaining the same using a horseradish peroxide conjugated second antibody and a specific antibody. An immune activation band was detected with SuperSignal West Pico Chemiluminescent Substrate (Thermo, IL, USA) using a Fusion Solo chemiluminescence analyzer (Vilber Rourmat Marne la Vallee, France). Antibodies to STAT3 (H-190), STAT3 (B-7) phosphorylated at Tyr705 and actin (C-2) were purchased from Santa Cruz Biotechnology. Rabbit monoclonal antibodies on AKT, AKT (D9E) phosphorylated at Ser473, FGFR1 phosphorylated at Tyr 653/654, p42/44 MAPK, phosphorylated p42/44 MAPK, p38 MAPK and p38 MAPK phosphorylated at Tyr 180/182 were purchased from Cell Signaling Technology (MA, USA). Further, HRP-conjugated goat anti-mouse and rabbit secondary antibodies were purchased from Jackson Laboratories, while BGJ398 used in the experiment (against FGFR1/2/3) was purchased from Selleckchem (USA).
Under this ground, in order to determine whether BGJ398 can vary the state of AKT and STAT3 in the sphere cultured SKOV3ip1 cells, the monolayer cultured (MC) or sphere cultured (SC) SKOV3ip1 cells were subjected to treatment using 5 μM BGJ398, followed by examining the degree of phosphorylation due to the above treatment.
Further, the sphere cultured SKOV3ip1 cells were treated with 5 μM BGJ398 (BGJ), 3 μM TAE648 (TAE) and 5 μM imatinib (IMT), respectively. After 72 hours, a cell lysate was obtained and subjected to immunostaining, followed by analyzing active cellular expression of AKT and STAT3 with the antibody for the same. Further, a phosphorylation level of FGFR1 was used as a positive control group relative to BGJ treatment groups while actin was used as a loading control group. The immunostaining assay procedure was implemented in the same manner as in Example 1.
Since the cell survival of the sphere cultured SKOV3ip1 cells is inhibited by BGJ398 treatment, whether such cell survival inhibition is intermediated through JAK/STAT3 signaling pathway was further examined. […]

CCN1CCN(c2ccc(Nc3cc(N(C)C(=O)Nc4c(Cl)c(OC)cc(OC)c4Cl)ncn3)cc2)CC1 [BGJ398, 3-(2,6-dichloro-3,5-dimethoxyphenyl)-1-[6-[4-(4-ethylpiperazin-1yl)anilino]pyrimidin-4-yl]-1-methylurea]
AKT and STAT3 phosphorylation (sphere cultured SKOV3ip1, 5 μM BGJ398 (FIG. 6), AG490, 72 hours (FIG. 7B)): suppressed again
phosphorylated AKT at Ser473 (sphere cultured, 5 μM BGJ398, 3 μM TAE648, 5 μM imatinib, 72 hours (FIG. 6)): inhibits phosphorylated AKT at Ser473 residue

Source: patent US11779582B2, “Composition for preventing or treating metastatic ovarian cancer, endometrial cancer or breast cancer” (LEMONEX INC., priority 2017, dated 2023)
